Columns and labels:
[1] = system: MDA-MB-453; conditions: 72 h
In short: (§1)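 After 72 h on 384-well plates pre-loaded with compound in 5 µl medium, breast cancer cell lines seeded in 20 µl were assayed for viability with 2.5 µl CellTiter-Blue at 37 °C for 2 h, read at 560/590 nm. Each plate was quality-checked by Z'-factor and normalised to vehicle and a positive kill control. EC50 comes from the fitted percent-inhibition dose-response curve, censored at the top concentration, and rows scoring zero for drug sensitivity were left out.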

[2] = system: DU-4475; conditions: 72 h
In short: as §1

[3] = system: CAL-85-1; conditions: 72 h
In short: as §1

[4] = system: HDQ-P1; conditions: 72 h
In short: as §1

[5] = system: Hs578T; conditions: 72 h
In short: as §1

[6] = system: MDA-MB-468; conditions: 72 h
In short: as §1

[7] = system: HCC1599; conditions: 72 h
In short: as §1

[8] = system: BT-474; conditions: 72 h
In short: as §1

[9] = system: MFM-223; conditions: 72 h
In short: as §1

[10] = system: HCC1143; conditions: 72 h
In short: as §1

[11] = system: MDA-MB-231; conditions: 72 h
In short: as §1

[12] = system: CAL-148; conditions: 72 h
In short: (§2)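 Per-plate normalisation used 0.1 % DMSO and a positive kill control. Breast cancer cell lines (20 µl suspension) were seeded into 384-well plates containing compound at 5 concentrations in 10-fold steps across a compound-specific 10,000-fold range, incubated for 72 h, and read first for CellTox Green fluorescence (485/520 nm), then for CellTiter-Glo luminescence. EC50 was fitted from the dose-response curves and censored at the top concentration.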

[13] = system: Hs578T; conditions: 72 h; remark: listed apart in the source
In short: as §2

[14] = system: MCF-10A; conditions: 72 h
In short: as §2

[15] = system: BT-549; conditions: 72 h
In short: as §2

[16] = system: MDA-MB-453; conditions: 72 h; remark: listed apart in the source
In short: as §2

[17] = system: HCC1599; conditions: 72 h; remark: listed apart in the source
In short: as §2

[18] = system: DU-4475; conditions: 72 h; remark: listed apart in the source
In short: as §2

[19] = system: MDA-MB-436; conditions: 72 h
In short: as §2

[20] = system: CAL-85-1; conditions: 72 h; remark: listed apart in the source
In short: as §2

[21] = system: BT-474; conditions: 72 h; remark: listed apart in the source
In short: as §2

[22] = system: SK-BR-3; conditions: 72 h
In short: as §2

[23] = system: HDQ-P1; conditions: 72 h; remark: listed apart in the source
In short: as §2

[24] = system: CAL-51; conditions: 72 h
In short: as §2

[25] = system: HCC1143; conditions: 72 h; remark: listed apart in the source
In short: as §2

[26] = system: MDA-MB-231; conditions: 72 h; remark: listed apart in the source
In short: as §2

[27] = system: CAL-148; conditions: 72 h; remark: listed apart in the source
Procedure: (§3)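 Drug sensitivity and resistance testing (DSRT) of breast cancer cell lines in 384-well plates, 5 concentrations in 10-fold dilutions over a compound-specific 10,000-fold range. After 72 h, cytotoxicity was read by CellTox Green fluorescence and viability by CellTiter-Glo luminescence (multiplexed), normalised to DMSO and benzethonium chloride controls. EC50 is the inflection point of the fitted dose-response curve (bottom asymptote free, so it can be relative for partial curves) and is censored at the highest tested concentration. Rows with DSS 0 (no meaningful response) were excluded.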

[28] = system: MDA-MB-468; conditions: 72 h; remark: listed apart in the source
Procedure: as §3

[29] = system: CAL-85-1; conditions: 72 h; remark: listed apart in the source
Procedure: as §3

[30] = system: CAL-51; conditions: 72 h; remark: listed apart in the source
Procedure: as §3

[31] = system: MFM-223; conditions: 72 h; remark: listed apart in the source
In short: as §2

[32] = system: MDA-MB-453; experiment: normalised viability (% of control), CellTiter-Blue; higher = more viable cells (about 100 = DMSO control); conditions: incubation time: 72 h
Procedure: (§4)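 DSRT, CellTiter-Blue viability, 72 h incubation. Signal is normalised to DMSO and benzethonium chloride controls. Value is the normalised response at dose 9.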

[33] = system: DU-4475; experiment: as above; conditions: incubation time: 72 h
Procedure: as §4

[34] = system: CAL-85-1; experiment: as above; conditions: incubation time: 72 h
Procedure: as §4

[35] = system: HDQ-P1; experiment: as above; conditions: incubation time: 72 h
Procedure: as §4

Compound | EC50, CellTiter-Blue viability [1] | EC50, CellTiter-Blue viability [2] | EC50, CellTiter-Blue viability [3] | EC50, CellTiter-Blue viability [5] | EC50, CellTiter-Blue viability [6] | EC50, CellTiter-Blue viability [7] | EC50, CellTiter-Blue viability [10] | EC50, CellTiter-Blue viability [11] | EC50, CellTiter-Glo [12] | EC50, CellTiter-Glo [13] | EC50, CellTiter-Glo [15] | EC50, CellTiter-Glo [18] | EC50, CellTiter-Glo [19] | EC50, CellTiter-Glo [21] | EC50, CellTiter-Glo [22] | EC50, CellTiter-Glo [23] | normalised viability [32] | normalised viability [33] | normalised viability [34] | normalised viability [35] | also measured
COc1cccc2c1C(=O)c1c(O)c3c(c(O)c1C2=O)C[C@@](O)(C(=O)CO)C[C@@H]3O[C@H]1C[C@H](N)[C@H](O)[C@H](C)O1 [Doxorubicin] | 409 nM | 71.8 nM | 279 nM | 147 nM | 150 nM | 83.5 nM | 132 nM | 187 nM | 187 nM | 463 nM | 154 nM | 177 nM | 449 nM | 167 nM | 263 nM | 465 nM |  |  |  |  | EC50, CellTiter-Blue viability [4]: 259 nM; EC50, CellTiter-Blue viability [8]: 522 nM; EC50, CellTiter-Blue viability [9]: 558 nM; EC50, CellTiter-Glo [14]: 856 nM; EC50, CellTiter-Glo [16]: 607 nM; EC50, CellTiter-Glo [17]: 597 nM; EC50, CellTiter-Glo [20]: 547 nM; EC50, CellTiter-Glo [24]: 41.5 nM; EC50, CellTiter-Glo [25]: 942 nM; EC50, CellTiter-Glo [26]: 311 nM; EC50, CellTox Green [27]: 92.4 nM; EC50, CellTox Green [28]: 100 nM; EC50, CellTox Green [29]: 440 nM; EC50, CellTox Green [30]: 68 nM
N#CC[C@H](C1CCCC1)n1cc(-c2ncnc3[nH]ccc23)cn1 [Ruxolitinib] |  |  |  |  |  |  |  |  |  |  |  |  |  | > 10000 nM |  |  |  |  |  |  | EC50, CellTiter-Glo [31]: > 10000 nM
Nc1ccn([C@@H]2O[C@H](CO)[C@@H](O)[C@@H]2O)c(=O)n1 [Cytarabine] | 396 nM | 450 nM | 1190 nM | 17.3 nM | 483 nM | 556 nM | 213 nM | 183 nM | 200 nM | 462 nM | 305 nM | 339 nM | 364 nM | > 10000 nM | 156 nM | 2890 nM |  |  |  |  | EC50, CellTiter-Glo [24]: 544 nM; EC50, CellTiter-Glo [25]: 1270 nM; EC50, CellTox Green [27]: 61.6 nM; EC50, CellTox Green [30]: 315 nM
CN1CC[C@H](c2c(O)cc(O)c3c(=O)cc(-c4ccccc4Cl)oc23)[C@H](O)C1 [Alvocidib] (10000 nM) |  |  |  |  |  |  |  |  |  |  |  |  |  |  |  |  | 10.1% | 1.22% | 2.66% | 16.4% | 
OC[C@H]1O[C@@H](n2cnc3c2N=CNC[C@H]3O)C[C@@H]1O [Pentostatin] (10000 nM) |  |  |  |  |  |  |  |  |  |  |  |  |  |  |  |  | 106% | 103% | 108% | 99.7% | 
Nc1ccn([C@@H]2O[C@H](CO)[C@@H](O)[C@@H]2O)c(=O)n1 [Cytarabine] (10000 nM) |  |  |  |  |  |  |  |  |  |  |  |  |  |  |  |  | 58.7% | 22.1% | 68.2% | 87.4% | 

— the supplement of paper PMC4862054
